Measured values taken from ChEMBL document CHEMBL5303573, “Mapping human microbiome drug metabolism by gut bacteria and their genes” (Nature, 2019).

Columns and labels:
[1] = The drug is tested on Bacteroides coprophilus strain: DSM18228 for biotransformation. The drug concentrations were measured before and after a 12-h incubation by liquid-chromatography-coupled mass spectrometry (LC–MS); details: 2 µM
[2] = The drug is tested on Bacteroides fragilis strain: HMW610 for biotransformation. The drug concentrations were measured before and after a 12-h incubation by liquid-chromatography-coupled mass spectrometry (LC–MS); details: 2 µM
[3] = The drug is tested on Coprococcus comes strain: ATCC27758 for biotransformation. The drug concentrations were measured before and after a 12-h incubation by liquid-chromatography-coupled mass spectrometry (LC–MS); assay type: ADME; set-up: dose 2 uM, timepoint 0 vs 12 hours; details: 2 µM
[4] = bacteroides intestinalis, 12 h, 2 µM
[5] = The drug is tested on Dorea formicigenerans strain: ATCC27755 for biotransformation. The drug concentrations were measured before and after a 12-h incubation by liquid-chromatography-coupled mass spectrometry (LC–MS); details: 2 µM
[6] = The drug is tested on Ruminococcus gnavus strain: ATCC29149 for biotransformation. The drug concentrations were measured before and after a 12-h incubation by liquid-chromatography-coupled mass spectrometry (LC–MS); details: mediterraneibacter gnavus, 2 µM
[7] = parabacteroides distasonis, 12 h, 2 µM
[8] = The drug is tested on Bacteroides xylanisolvens strain: DSM18836 for biotransformation. The drug concentrations were measured before and after a 12-h incubation by liquid-chromatography-coupled mass spectrometry (LC–MS); details: 2 µM
[9] = akkermansia muciniphila, 12 h, 2 µM
[10] = The drug is tested on Edwardsiella tarda strain: ATCC23685 for biotransformation. The drug concentrations were measured before and after a 12-h incubation by liquid-chromatography-coupled mass spectrometry (LC–MS); details: 2 µM
[11] = bacteroides stercoris, 12 h, 2 µM
[12] = The drug is tested on Providencia stuartii strain: ATCC25827 for biotransformation. The drug concentrations were measured before and after a 12-h incubation by liquid-chromatography-coupled mass spectrometry (LC–MS); details: 2 µM
[13] = The drug is tested on Bacteroides cellulosilyticus strain: DSM14838 for biotransformation. The drug concentrations were measured before and after a 12-h incubation by liquid-chromatography-coupled mass spectrometry (LC–MS); details: 2 µM
[14] = The drug is tested on Bacteroides pectinophilus strain: ATCC43243 for biotransformation. The drug concentrations were measured before and after a 12-h incubation by liquid-chromatography-coupled mass spectrometry (LC–MS); details: 2 µM
[15] = The drug is tested on Bacteroides vulgatus strain: ATCC8482 for biotransformation. The drug concentrations were measured before and after a 12-h incubation by liquid-chromatography-coupled mass spectrometry (LC–MS); details: phocaeicola vulgatus, 2 µM
[16] = The drug is tested on Bacteroides fragilis strain: HMW615 for biotransformation. The drug concentrations were measured before and after a 12-h incubation by liquid-chromatography-coupled mass spectrometry (LC–MS); details: 2 µM
[17] = enterocloster bolteae, 12 h, 2 µM
Description: The drug is tested on Clostridium bolteae strain: ATCCBAA-613 for biotransformation. The drug concentrations were measured before and after a 12-h incubation by liquid-chromatography-coupled mass spectrometry (LC–MS)

[18] = The drug is tested on Enterobacter cancerogenus strain: ATCC35316 for biotransformation. The drug concentrations were measured before and after a 12-h incubation by liquid-chromatography-coupled mass spectrometry (LC–MS); details: 2 µM
[19] = parabacteroides johnsonii, 12 h, 2 µM
Description: The drug is tested on Parabacteroides johnsonii strain: DSM18315 for biotransformation. The drug concentrations were measured before and after a 12-h incubation by liquid-chromatography-coupled mass spectrometry (LC–MS)

[20] = The drug is tested on Blautia hansenii strain: DSM20583 for biotransformation. The drug concentrations were measured before and after a 12-h incubation by liquid-chromatography-coupled mass spectrometry (LC–MS); details: 2 µM

| SMILES | Bacterial Biotransformation [1] | Bacterial Biotransformation [2] | Bacterial Biotransformation [3] | Bacterial Biotransformation [4] | Bacterial Biotransformation [5] | Bacterial Biotransformation [6] | Bacterial Biotransformation [7] | Bacterial Biotransformation [8] | Bacterial Biotransformation [9] | Bacterial Biotransformation [10] | Bacterial Biotransformation [11] | Bacterial Biotransformation [14] | Bacterial Biotransformation [15] | Bacterial Biotransformation [16] | Bacterial Biotransformation [18] | Bacterial Biotransformation [19] | Bacterial Biotransformation [20] | Bacterial Biotransformation [12] | Bacterial Biotransformation [13] | Bacterial Biotransformation [17] |
| --- | --- | --- | --- | --- | --- | --- | --- | --- | --- | --- | --- | --- | --- | --- | --- | --- | --- | --- | --- | --- |
| COc1ccc(CCN(C)CCCC(C#N)(c2ccc(OC)c(OC)c2)C(C)C)cc1OC (stereo not given) | Compound NOT metabolized | Compound NOT metabolized | Compound NOT metabolized | Compound metabolized | Compound NOT metabolized | Compound NOT metabolized | Compound metabolized | Compound metabolized | Compound metabolized | Compound NOT metabolized | Compound metabolized | Compound NOT metabolized | Compound metabolized | Compound NOT metabolized | – | – | – | Compound NOT metabolized | Compound NOT metabolized | – |
| CS(=O)(=O)O.OC(CCN1CCCCC1)(c1ccccc1)c1ccccc1 [PRIDINOL METHANESULFONATE] | Compound NOT metabolized | Compound NOT metabolized | Compound NOT metabolized | Compound NOT metabolized | Compound NOT metabolized | Compound NOT metabolized | – | Compound NOT metabolized | Compound NOT metabolized | Compound NOT metabolized | Compound NOT metabolized | Compound NOT metabolized | Compound NOT metabolized | Compound NOT metabolized | – | – | – | Compound NOT metabolized | Compound NOT metabolized | Compound NOT metabolized |
| CC(CN(C)C)CN1c2ccccc2CCc2ccccc21.O=C(O)/C=C\C(=O)O (stereo not given) [TRIMIPRAMINE MALEATE] | – | Compound NOT metabolized | Compound NOT metabolized | Compound NOT metabolized | Compound NOT metabolized | Compound NOT metabolized | Compound NOT metabolized | Compound NOT metabolized | Compound NOT metabolized | Compound NOT metabolized | Compound NOT metabolized | Compound NOT metabolized | Compound NOT metabolized | Compound NOT metabolized | Compound NOT metabolized | Compound NOT metabolized | Compound NOT metabolized | Compound NOT metabolized | – | Compound NOT metabolized |
| C[C@@H](c1ncncc1F)[C@](O)(Cn1cncn1)c1ccc(F)cc1F [VORICONAZOLE] | – | Compound metabolized | Compound NOT metabolized | – | Compound NOT metabolized | Compound NOT metabolized | Compound metabolized | Compound metabolized | Compound NOT metabolized | Compound NOT metabolized | – | Compound NOT metabolized | Compound metabolized | Compound metabolized | Compound NOT metabolized | Compound NOT metabolized | Compound NOT metabolized | Compound NOT metabolized | – | Compound NOT metabolized |

The next lines start with results.

| Bacterial Biotransformation [1] | Bacterial Biotransformation [2] | Bacterial Biotransformation [3] | Bacterial Biotransformation [4] | Bacterial Biotransformation [5] | Bacterial Biotransformation [6] | Bacterial Biotransformation [7] | Bacterial Biotransformation [8] | Bacterial Biotransformation [9] | Bacterial Biotransformation [10] | Bacterial Biotransformation [11] | Bacterial Biotransformation [14] | Bacterial Biotransformation [15] | Bacterial Biotransformation [16] | Bacterial Biotransformation [18] | Bacterial Biotransformation [19] | Bacterial Biotransformation [20] | SMILES | Bacterial Biotransformation [12] | Bacterial Biotransformation [13] | Bacterial Biotransformation [17] |
| --- | --- | --- | --- | --- | --- | --- | --- | --- | --- | --- | --- | --- | --- | --- | --- | --- | --- | --- | --- | --- |
| Compound NOT metabolized | Compound NOT metabolized | Compound NOT metabolized | Compound NOT metabolized | Compound NOT metabolized | Compound NOT metabolized | Compound NOT metabolized | Compound NOT metabolized | Compound NOT metabolized | Compound NOT metabolized | Compound NOT metabolized | Compound NOT metabolized | Compound NOT metabolized | Compound NOT metabolized | Compound NOT metabolized | Compound NOT metabolized | Compound NOT metabolized | O=C(NCc1ccccc1)OCCO [BURAMATE] | – | – | Compound NOT metabolized |
| Compound NOT metabolized | Compound NOT metabolized | Compound NOT metabolized | Compound NOT metabolized | Compound NOT metabolized | Compound NOT metabolized | Compound NOT metabolized | Compound NOT metabolized | Compound NOT metabolized | Compound NOT metabolized | Compound NOT metabolized | Compound NOT metabolized | Compound NOT metabolized | Compound NOT metabolized | Compound NOT metabolized | Compound NOT metabolized | Compound NOT metabolized | O=C([O-])C[C@H](O)C[C@H](O)/C=C/c1c(C2CC2)nc2ccccc2c1-c1ccc(F)cc1.O=C([O-])C[C@H](O)C[C@H](O)/C=C/c1c(C2CC2)nc2ccccc2c1-c1ccc(F)cc1.[Ca+2] [PITAVASTATIN CALCIUM] | – | – | Compound NOT metabolized |
| Compound NOT metabolized | Compound metabolized | Compound NOT metabolized | – | Compound NOT metabolized | Compound NOT metabolized | Compound NOT metabolized | Compound NOT metabolized | Compound NOT metabolized | Compound NOT metabolized | Compound NOT metabolized | Compound NOT metabolized | Compound NOT metabolized | Compound metabolized | Compound NOT metabolized | Compound metabolized | Compound NOT metabolized | CNNCc1ccc(C(=O)NC(C)C)cc1 [PROCARBAZINE] | Compound NOT metabolized | – | Compound NOT metabolized |
